The results in this text go back to PubChem BioAssay (NCI).

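Values below derive from 48-hour exposures of cells grown in 96-well plates, with endpoints linearly interpolated between the two concentrations bracketing the appropriate inhibition level. At the GI50, growth is halved. At the TGI there is no net growth.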

Among the test systems are HT29 colon; MOLT-4 leukemia; HOP-92 NSCLC; NCI-H522 lung; 786-0 renal; M14 melanoma; SF-539 CNS; A549 NSCLC; HOP-62 NSCLC; HCT-116 colon.
Holding throughout (test): NCI tumour cell line growth inhibition, 48 h

With `CCOC(=O)c1sc(Nc2ccc(Cl)cc2)nc1C`, the GI50 is 2.05 µM in the assay with HT29 colon; 1.79 µM in the assay on MOLT-4 leukemia; 0.346 µM in the assay with HOP-92 NSCLC; 1.18 µM in the assay on NCI-H522 lung; 1.55 µM in the assay on 786-0 renal; 1.56 µM in the assay on M14 melanoma. For the same compound, the results for the GI50 with SF-539 CNS, in the assay on A549 NSCLC and with HOP-62 NSCLC were 1.66 µM, 2.17 µM and 1.89 µM, respectively. The TGI in the assay with HT29 colon was determined as 4.09 µM; in the assay on MOLT-4 leukemia, 6.92 µM; in the assay on HOP-92 NSCLC, 1.81 µM; with NCI-H522 lung, 3.57 µM; in the assay with 786-0 renal, 3.14 µM; in the assay on M14 melanoma it was 3.32 µM. Further, the TGI with SF-539 CNS was 3.72 µM; with A549 NSCLC, 5.45 µM; in the assay on HOP-62 NSCLC, 5.06 µM.

In the case of `CCCCCCCC[N+](C)(CCCCCCCC)CCCCCCCC`, the GI50 is 0.295 µM in the assay with HT29 colon; 0.324 µM in the assay with MOLT-4 leukemia; 0.214 µM in the assay on HOP-92 NSCLC; 0.223 µM with NCI-H522 lung; 0.345 µM in the assay with 786-0 renal; 0.388 µM with M14 melanoma. The GI50 in the assay with HCT-116 colon is 0.272 µM; with SF-539 CNS it was 0.513 µM; with A549 NSCLC it was 1.36 µM; with HOP-62 NSCLC it was 0.473 µM. The TGI was 1.25 µM with HT29 colon; 1.37 µM with MOLT-4 leukemia; 0.803 µM in the assay on HOP-92 NSCLC; 0.746 µM in the assay with NCI-H522 lung; 1.3 µM in the assay with 786-0 renal; 1.63 µM in the assay on M14 melanoma. Further, the TGI with HCT-116 colon was 1.24 µM; in the assay with SF-539 CNS it was 1.66 µM; in the assay on A549 NSCLC, 3.08 µM; in the assay with HOP-62 NSCLC it was 1.61 µM.

For `Cc1[nH]c(=O)[nH]c(=O)c1CO`, the GI50 in the assay on HT29 colon, with MOLT-4 leukemia, in the assay with HOP-92 NSCLC, in the assay with NCI-H522 lung, in the assay on 786-0 renal and in the assay on M14 melanoma was above 100 µM each time. For the same compound, the GI50 in the assay on HCT-116 colon, in the assay on SF-539 CNS, with A549 NSCLC and in the assay with HOP-62 NSCLC was above 100 µM throughout. The TGI in the assay on HT29 colon, with MOLT-4 leukemia, with HOP-92 NSCLC, in the assay with NCI-H522 lung, in the assay with 786-0 renal and in the assay with M14 melanoma was above 100 µM throughout. For the same compound, the TGI with HCT-116 colon, in the assay on SF-539 CNS, with A549 NSCLC and with HOP-62 NSCLC was above 100 µM in each case.

For `Cc1ccc(C)c(-c2csc(Nc3ccc(C)c(C)c3)n2)c1`, the GI50 with HT29 colon is above 100 µM; with MOLT-4 leukemia, above 100 µM; in the assay on HOP-92 NSCLC it was 29 µM; in the assay on NCI-H522 lung it was 67.1 µM; in the assay with 786-0 renal it was 39.5 µM; in the assay with HCT-116 colon it was above 100 µM. For the same compound, the results for the GI50 with SF-539 CNS, in the assay with A549 NSCLC and in the assay with HOP-62 NSCLC were 44.6 µM, above 100 µM and 36.8 µM, respectively. The TGI in the assay on HT29 colon, in the assay with MOLT-4 leukemia, in the assay on HOP-92 NSCLC, in the assay with NCI-H522 lung, in the assay with 786-0 renal and in the assay on HCT-116 colon was above 100 µM each time. Also, the TGI in the assay on SF-539 CNS, in the assay on A549 NSCLC and with HOP-62 NSCLC was above 100 µM throughout.

For the compound `COC(=O)C1=C(C(=O)OC)C23C=C(C)C1C2=C(C)C1(CC1)[C@@](C)(O)C3=O` (stereo partly drawn), the GI50 was 0.337 µM in the assay on HT29 colon; 6.62 µM in the assay with MOLT-4 leukemia; 0.31 µM in the assay with HOP-92 NSCLC; 0.495 µM with NCI-H522 lung; 0.323 µM in the assay on 786-0 renal; 0.316 µM in the assay with M14 melanoma. In addition, the GI50 in the assay on HCT-116 colon was 0.37 µM; in the assay with SF-539 CNS, 0.337 µM; in the assay with A549 NSCLC it was 0.255 µM; in the assay on HOP-62 NSCLC it was 0.267 µM. Moreover, the TGI was 16.9 µM with HT29 colon; above 100 µM in the assay with MOLT-4 leukemia; 1.53 µM with HOP-92 NSCLC; 5.75 µM in the assay on NCI-H522 lung; 3.05 µM in the assay on 786-0 renal; 1.46 µM in the assay on M14 melanoma. The TGI with HCT-116 colon worked out at 11.5 µM; with SF-539 CNS, 1.56 µM; in the assay with A549 NSCLC, 0.858 µM; in the assay with HOP-62 NSCLC it was 0.754 µM.

As to `COC(=O)C(Cl)=C1CC1`, the TGI in the assay on HT29 colon is above 100 µM; in the assay on MOLT-4 leukemia it was 53.4 µM; with HOP-92 NSCLC it was 29.1 µM; with NCI-H522 lung, 33.9 µM; in the assay on 786-0 renal, 65.4 µM; in the assay with M14 melanoma, 30.5 µM. Besides, the TGI was 69.1 µM in the assay on SF-539 CNS, above 100 µM in the assay on A549 NSCLC and above 100 µM in the assay with HOP-62 NSCLC.

With `O=C1C(=O)C(Br)(Br)C(Br)=C1Br`, the TGI was determined as 38.5 µM with HT29 colon; 63 µM in the assay with MOLT-4 leukemia; 36.7 µM in the assay on HOP-92 NSCLC; 6.68 µM in the assay on NCI-H522 lung; 32.1 µM with 786-0 renal; 32.4 µM in the assay on M14 melanoma. The TGI in the assay with SF-539 CNS is 33.4 µM; with A549 NSCLC it was above 100 µM; with HOP-62 NSCLC it was above 100 µM.

Turning to `N#CCCN(c1ccc(-c2nnc(NC(=O)CNNC(=O)CC(=O)Nc3ccccc3)s2)cc1)S(=O)(=O)c1ccccc1`, the TGI with HT29 colon, in the assay on MOLT-4 leukemia, in the assay on HOP-92 NSCLC, in the assay with NCI-H522 lung, in the assay with 786-0 renal and in the assay with HCT-116 colon was above 100 µM in each case. The TGI in the assay on SF-539 CNS, in the assay with A549 NSCLC and in the assay on HOP-62 NSCLC was above 100 µM throughout.

Turning to `COc1cc2nc(Nc3cccc(F)c3)nc(Nc3cc(C)[nH]n3)c2cc1OC`, the GI50 is 1.99 µM in the assay on HT29 colon; 1.89 µM with MOLT-4 leukemia; 1.67 µM with HOP-92 NSCLC; 1.92 µM in the assay with NCI-H522 lung; 1.75 µM with 786-0 renal; 1.64 µM in the assay with M14 melanoma. The GI50 in the assay with SF-539 CNS is 1.78 µM; in the assay on HOP-62 NSCLC it was 1.87 µM. Further, the TGI worked out at 4.93 µM in the assay on HT29 colon; 5.76 µM with MOLT-4 leukemia; 3.21 µM with HOP-92 NSCLC; 4.94 µM with NCI-H522 lung; 3.45 µM in the assay with 786-0 renal; 3.22 µM in the assay on M14 melanoma. The TGI was 3.18 µM in the assay with SF-539 CNS and 3.62 µM in the assay on HOP-62 NSCLC.

For the compound `NC(=S)N/N=C1/C(=O)N(c2ccc(Cl)cc2Cl)C(=O)C(=O)C1c1nc2ccccc2s1` (stereo not drawn), the TGI with HT29 colon, in the assay with MOLT-4 leukemia, in the assay with HOP-92 NSCLC, in the assay on NCI-H522 lung, with 786-0 renal and with M14 melanoma was above 100 µM throughout. Besides, the TGI with HCT-116 colon, in the assay on SF-539 CNS and in the assay on HOP-62 NSCLC was above 100 µM each time.
